Measured values taken from publication PMC12217461 (Antimicrobial Agents and Chemotherapy, 2025).
Read-outs that look alike come from different tables or passages of the source.

Assays:
[1] = test system: IMP-4; settings: crude enzyme extract, 100 µM cephalothin, 3 min pre-incubation; read-out: IC50 against IMP-4; cited from earlier work
[2] = test system: IMP-14 H174N; assay: IC50, inhibition of cephalothin hydrolysis; assay type: biochemical; settings: crude enzyme extract, 100 µM cephalothin, 3 min pre-incubation; read-out: IC50 against IMP-14 H174N
Method: (§1) Genes encoding different acquired IMP-like enzymes suspected to be resistant to XER (blaIMP-6, blaIMP-7, blaIMP-10, blaIMP-14, blaIMP-26, blaIMP-34, and blaIMP-59) were amplified by PCR, and corresponding amplicons were cloned into plasmid pUCP24 and expressed in E. coli TOP10. The following recombinant E. coli strains producing IMP-1, IMP-4, IMP-19, and NDM-1 were used from a previous study ([16]). Therefore, site-directed mutagenesis was performed using the Q5 Site-Directed Mutagenesis kit (ref. E0554S, New England Biolabs, Ipswich, MA) to obtain mutants of NDM-1 and IMP-14 in order to test the impact of specific amino-acid substitutions with respect to XER sensitivity. For that purpose, a list of primers was designed and provided as Table S1. […] The nomenclature used in this study was according to the BBL sequence numbering ([52]).
(§2) Cultures of E. coli TOP10 harboring recombinant plasmids and therefore producing the different IMP-like tested were grown overnight at 37°C in 50 mL of lysogeny broth (LB) with gentamicin (50 µg/mL). The bacterial suspension was pelleted, resuspended in 10 mL of 100 mM phosphate buffer (pH 7) supplemented with ZnSO4 (5 µM) for E. coli TOP10 harboring IMPs and then sonicated using a Vibra Cell 75186 sonicator (Thermo Fisher Scientific), followed by centrifugation for 1 h at 11,000 × g and 4°C. The presence of the β-lactamase was monitored using nitrocefin (200 µM). Kinetic measurements were performed at room temperature in 100 mM sodium phosphate (pH 7.0) supplemented with ZnSO4 (5 µM) for IMPs using a UV/visible ULTROSPEC 2100 pro spectrophotometer (Amersham Biosciences, Buckinghamshire, UK). The wavelength and absorption coefficient of cephalothin (262 nm/Ʌ ɛ = −7960 M^−1.cm^−1) were used for all IMPs, and IC50 was determined in triplicate for TAN and XER. Various concentrations of these inhibitors were pre-incubated with the crude extract of the enzyme for 3 min at room temperature to determine the concentrations that reduced the hydrolysis rate of 100 µM of cephalothin by 50% ([54]).

[3] = test system: IMP-14 N178S; assay: IC50, inhibition of cephalothin hydrolysis; assay type: biochemical; settings: crude enzyme extract, 100 µM cephalothin, 3 min pre-incubation; read-out: IC50 against IMP-14 N178S
Method: as §1, §2

[4] = test system: IMP-14 N233Y; assay: IC50, inhibition of cephalothin hydrolysis; assay type: biochemical; settings: crude enzyme extract, 100 µM cephalothin, 3 min pre-incubation; read-out: IC50 against IMP-14 N233Y
Method: as §1, §2

[5] = test system: IMP-14 S65G; assay: IC50, inhibition of cephalothin hydrolysis; assay type: biochemical; settings: crude enzyme extract, 100 µM cephalothin, 3 min pre-incubation; read-out: IC50 against IMP-14 S65G
Method: as §1, §2

[6] = test system: IMP-14 D227Y; assay: IC50, inhibition of cephalothin hydrolysis; assay type: biochemical; settings: crude enzyme extract, 100 µM cephalothin, 3 min pre-incubation; read-out: IC50 against IMP-14 D227Y
Method: as §1, §2

[7] = test system: IMP-1; settings: crude enzyme extract, 100 µM cephalothin, 3 min pre-incubation; read-out: IC50 against IMP-1; cited from earlier work
[8] = test system: IMP-19; settings: crude enzyme extract, 100 µM cephalothin, 3 min pre-incubation; read-out: IC50 against IMP-19; cited from earlier work
[9] = test system: IMP-10; settings: crude enzyme extract, 100 µM cephalothin, 3 min pre-incubation; read-out: IC50 against IMP-10; cited from earlier work
[10] = test system: NDM-1; settings: crude enzyme extract, 100 µM cephalothin, 3 min pre-incubation; read-out: IC50 against NDM-1; cited from earlier work
[11] = target: IMP-59 (Escherichia coli, UniProt A0A172MB70); assay: IC50, inhibition of cephalothin hydrolysis; assay type: biochemical
Method: as §2

[12] = target: T1, IMP-6 (Serratia marcescens, UniProt P52699, S214G); assay: IC50, inhibition of cephalothin hydrolysis; assay type: biochemical; settings: crude enzyme extract, 100 µM cephalothin, 3 min pre-incubation; read-out: IC50 against IMP-6
T1 construct: made in house; host or cells: E. coli TOP10, plasmid pUCP24 (crude extract)
Method: as §2

[13] = target: IMP-26 (Klebsiella pneumoniae, UniProt D0V558); assay: IC50, inhibition of cephalothin hydrolysis; assay type: biochemical
Method: as §2

[14] = test system: IMP-14; assay: IC50, inhibition of cephalothin hydrolysis; assay type: biochemical; settings: crude enzyme extract, 100 µM cephalothin, 3 min pre-incubation; read-out: IC50 against IMP-14
Method: as §2

| Structure (SMILES) | IC50 [1] [µM] | IC50 [2] [µM] | IC50 [3] [µM] | IC50 [4] [µM] | IC50 [5] [µM] | IC50 [6] [µM] | IC50 [7] [µM] | IC50 [8] [µM] | IC50 [9] [µM] | IC50 [10] [µM] | IC50 ([11]; crude enzyme extract, 100 µM cephalothin, 3 min pre-incubation, read-out: IC50 against IMP-59) [µM] | IC50 [12] [µM] | IC50 ([13]; crude enzyme extract, 100 µM cephalothin, 3 min pre-incubation, read-out: IC50 against IMP-26) [µM] | IC50 [14] [µM] | IC50 [11] [µM] | IC50 [13] [µM] |
| --- | --- | --- | --- | --- | --- | --- | --- | --- | --- | --- | --- | --- | --- | --- | --- | --- |
| NCCN[C@H]1CC[C@H](CC(=O)N[C@H]2Cc3cccc(C(=O)O)c3OB2O)CC1 [taniborbactam] | > 250 | > 250 | > 250 | > 250 | > 250 | 204 | > 250 | > 250 | > 250 | […] | 7 | > 250 | > 250 | > 250 | – | – |
| O=C(O)c1c(F)ccc2c1OB(O)[C@@H]1C[C@H]21 [xeruborbactam] | 14.7 | 182 | 180 | 210 | 140 | 250 | 2.7 | 7.5 | 73 | […] | – | 180 | – | > 250 | 10.3 | 77 |
